According to US20050119301A1, “Treatment of restenosis” (priority 2001, published 2005):
Entries after “also recorded” stand apart in the source; their conditions may differ. Blank lines part the entries; values can stand above or below the compound they belong to.

How the values were obtained:
[1] = test system: rat isolated aortic rings; assay: Protection against endothelium damage induced by oxidised LDL, acetylcholine dilatation (Protocol 3)
Description: Male Sprague-Dawley rats (250±50 g) were gassed with 80% CO2 and 20% O2 until killed. The thoracic aorta was excised and quickly placed in ice-cold Krebs modified solution composed of NaCl […], […] 4.7 mM, MgSO4 7H2O 1.17 mM, NaHCO3 25 mM, KH2PO4 1.18 mM, CaCl2 2.5 mM, glucose 11 mM and EDTA 0.03 mM. It was then trimmed of fat and connective tissue and cut into 2-3 mm wide rings. Each ring was mounted on two parallel stainless steel hooks in a single water-jacketed 3 ml organ bath containing modified Krebs solution maintained at 37° C. and bubbled with 95% O2 plus 5% CO2. The lower hook was attached to a movable support leg and the upper hook to an FTO3 force transducer (Grass Scientific Instruments, Mitutoyo, Japan) for isometric recordings. Changes in force were amplified (Quadbridge amplifier, Scientific Concepts Inc., Victoria, Australia) and recorded on a MacLab 8E data acquisition system (Adinstruments Pty Ltd., NSW, Australia) linked to an Apple computer (Apple Computer Inc, Cupertina, Calif.). Rings were set at an initial tension of 2 g and allowed to equilibrate for 30 minutes after which time they were re-set to 2 g tension before the commencement of each experimental protocol.
Full concentration response curves to phenylephrine were constructed from which the concentration giving a submaximal contraction of approximately 80% was selected (usually 0.3 μM). Tissues were then constricted with phenylephrine at the selected concentration and allowed to plateau. Full concentration dilatory curves were then constructed to acetylcholine. […]
Human plasma was obtained from the blood bank. […] The protein content of the final LDL fraction obtained was determined by the simplified protein assay method of Lowry. […]
Contractile responses are expressed in g tension (mean+standard error of the mean). Dilatory responses are expressed as a percentage of the contractile force generated by the pre-constricting agent used. […]

[2] = test system: Erk; assay: PDGF BB-induced MAP kinase activation in VSMC, immunoprecipitation analysis; assay type: cell-based; conditions: human VSMC
Description: (§1) To further examine the signalling pathway mediating the effect of this phytoestrogen in VSMC, the effect of Cpd. 7 on mitogen-activated protein (MAP) kinases (Erk, JUNK, p38) was determined by immunoprecipitation analysis and on early growth response genes (Egr-1, Sp-1) by Western blotting. […] 7 in a dose-dependent manner, while JUNK and p38 activity were not affected by either PDGF BB or Cpd. 7, though the cells strongly expressed both proteins as well as Erk. Egr-1 or Sp-1 proteins were not altered by either PDGF-BB or Cpd. 7.

[3] = test system: JUNK; assay: MAP kinase activity in VSMC, immunoprecipitation analysis; assay type: cell-based; conditions: human VSMC
Description: as §1

[4] = test system: p38; assay: as above; assay type: cell-based; conditions: human VSMC
Description: as §1

[5] = test system: Egr-1; assay: Early growth response gene protein in VSMC, Western blotting; assay type: cell-based; conditions: human VSMC
Description: as §1

[6] = test system: Sp-1; assay: as above; assay type: cell-based; conditions: human VSMC
Description: as §1

[7] = test system: Human umbilical vein endothelial cells; assay: Endothelial cell migration (wound) assay; assay type: cell-based; set-up: dose or concentration left out as unconfirmed; conditions: after 30 hours
Description: Human umbilical vein endothelial cells between passage 1 and 3 were used. They were grown in gelatin coated flasks in medium 199 with Earle's Salts supplemented with 20% foetal calf serum, 25 mg/ml endothelial cell growth supplement and 25 mg/ml heparin.
5×10^5 cells per well in growth medium were plated onto fibronectin coated 6 well trays and grown to confluence. A wound was produced along the monolayer with the use of a cell scraper (Costar). The cells were then washed once and fresh medium with the test compounds was added. Defined points along the wound were marked using an ink condenser (Olympus microscopes) allowing the movement of cells to be visualized at constant points over the next 48 hours. Photographs were taken at relevant times and the degree of cell movement from the wound front assessed.

Compound: Oc1ccc(C2COc3cc(O)ccc3C2O)cc1 (centres unmarked) [Cpd. 8]
potency of protective effect against ox-LDL relative to 17β-estradiol [1]: at least 10 times
protective effect against ox-LDL inhibition of acetylcholine dilatation (in words) ([1]; ox-LDL 0.3 mg protein/ml, β-estradiol 10 pg/ml, Cpd. 5 300 ng/ml, Cpd. 7 1 μg/ml, Cpd. 8 and 12 3 μg/ml): diminished the inhibitory effect of ox-LDL; also recorded: significantly protects against endothelium damage by oxidized LDL

JUNK activity [3]: not affected
p38 activity [4]: not affected
Compound: Oc1ccc(C2COc3cc(O)ccc3C2O)cc1 (centres unmarked) [Cpd. 7]
PDGF BB-induced Erk activation [2]: significantly inhibited by Cpd. 7 in a dose-dependent manner
Egr-1 protein [5]: not altered
Sp-1 protein [6]: not altered

Compound: Oc1ccc(C2=Cc3ccc(O)cc3OC2)cc1 [Cpd. 12]
endothelial cell migration towards the wound [7]: markedly inhibited endothelial cell migration
